Assay results: patent US20240208997A1, “CYCLIC BENZIMIDAZOLE DERIVATIVES AS CGAS INHIBITORS” (Boehringer Ingelheim International GmbH, priority 2022, published 2024)
pIC50: −log10 of the molar value.

Key:
[1] = system: IFN induction in virus-stimulated THP1 cells; assay: Human cGAS cell assay, virus-stimulated THP1-Dual cells (THP1(vir) IC50); assay type: cell-based; conditions: THP-1, 18 h, Table 1, baculovirus-stimulated THP1-Dual cells, Lucia luciferase, 18 h, read-out: THP(vir) IC50
Source text: (§1) 6.2 Method: Human cGAS Cell Assay and cGAMP Stimulated Counter Cell Assay (THP1(vir) IC50 and THP1(cGAMP) IC50)
THP1-Dual™ cells (InvivoGen #thpd-nfis) expressing IRF dependent Lucia luciferase reporter were used as basis for both assays. For the detection of cellular cGAS activity cells were stimulated by a baculovirus (pFastbac-1, Invitrogen, no coding insert) infection that delivers the cGAS enzyme stimulating double-stranded DNA (measurement of THP1(vir) IC50).
(§2) Pathway activity was monitored by measuring the Lucia luciferase activity induced by either DNA stimulated cGAS enzyme activity (measurement of THP1(vir) IC50) or by cGAMP directly (measurement of THP1(cGAMP) IC50, counter assay).
(§3) Compounds were delivered in 10 mM DMSO solution, serially diluted and transferred to the 384 well assay plate (Greiner #781201) using an Echo acoustic dispenser. Typically, 8 concentrations were used with the highest concentration at 10 μM in the final assay volume followed by ^˜1:5 dilution steps. DMSO concentration was set to 1% in the final assay volume. The 384 well assay plate contained […] (column 1-22), and DMSO in column 23 and 24.
(§4) Cells, cultivated according to manufacturer conditions, were harvested by centrifugation at 300 g/10 min and were then resuspended and diluted to 1.66E5 cells/ml in fresh cell culture medium (RPMI 1640 (Gibco #A10491-01), 10% FCS (Gibco #10500), 1× GlutaMax (Gibco #35050-061), 1× Pen/Strep solution (Gibco #15140-122), 100 μg/ml Normocin (InvivoGen #ant-nr), 100 μg/ml Zeocin (InvivoGen #ant-zn), 10 μg/ml Blasticidin S (Life Technologies #A11139-03)). The baculovirus solution was then added 1:200 (have varied according to virus batch) to the cells (measurement of THP1(vir) IC50).
(§5) 30 μL of the cell/virus-mix were added to each well of the compound plate from column 1-23 via MultiDrop Combi dispenser (5000 cells/well). In column 24, 30 μl/5000 cells/well without virus were added as a low control.
(§6) The plates were then incubated for 18 h at 37° C. in a humidified incubator.
(§7) Following that, 15 μL of QuantiLuc detection reagent (InvivoGen #rep-qlcg5) were added to each well using a MultiDrop Combi. Measurement was done immediately after the addition using an EnVision reader (US-luminescence read-mode).
(§8) Data Evaluation and Calculation:
(§9) For data evaluation and calculation, the measurement of the low control was set as 0% control and the measurement of the high control was set as 100% control. The IC50 values were calculated using the standard 4 parameter logistic regression formula. Calculation: [y=(a−d)/(1+(x/c)^b)+d], a=low value, d=high value; x=conc M; c=IC50 M; b=slope

[2] = system: IFN induction in cGAMP-stimulated THP1 cells; assay: cGAMP stimulated counter cell assay in THP1-Dual cells (THP1(cGAMP) IC50); assay type: cell-based, human; conditions: Table 1; for pIC50: Homo sapiens, THP-1, counter assay, 10 μM cGAMP stimulation, read-out: THP(cGAMP) IC50; for Ratio THP(cGAMP) IC50/THP(vir) IC50: selectivity for cGAS-inhibition
Source text: as §1
For the counter assay, cells were stimulated by cGAMP (SigmaAldrich #SML1232) to activate the identical pathway independent and directly downstream of cGAS (measurement of THP1(cGAMP) IC50).
as §2, §3, §4, §5, §6, §7, §8, §9

[3] = system: IFN induction in dsDNA-stimulated human whole blood; assay: Human whole blood assay (hWB IC50), dsDNA stimulated, IFNα2α production; assay type: cell-based; conditions: Table 1
Procedure: 6.3 Method: Human Whole Blood Assay (Human WB IC50)
For the detection of cellular cGAS activity human whole blood was stimulated by transfection with double stranded DNA. Pathway activity was monitored by measuring the IFNα2α production.
Compounds were delivered as 10 mM DMSO solution and serially diluted and transferred to the 96-well cell culture plate (Corning #3595), prefilled with 20 μl OptiMEM (Gibco, #11058-021) in each well, using an Echo acoustic dispenser. Typically, 8 concentrations were used with the highest concentration at 10 μM in the final assay volume followed by ^˜1:5 dilution steps. DMSO concentration was set to 0.1% in the final assay volume. The 96-well assay plate contained 10 test compounds, and DMSO in control wells.
Collection of human whole blood from 3 or more healthy donors (male or female, no medication for 7 days except contraceptive and thyroxine) as Na-Citrate blood (e.g. 3.8% in Monovettes from Sarstedt) was conducted in parallel. Whole blood was kept at room temperature for a maximum of 3 hours after collection until use in the assay. 160 μl of the whole blood samples was transferred to each well of the 96-well assay plates filled with compound/OptiMEM. All assay plates were prepared as duplicates with blood from different donors. Blood plates were kept at room temperature for 60 minutes and continuous shaking with 450 rpm, covered with the lid, but not sealed.
20 μl OptiMEM and 9.6:1 Fugene was added to all low control wells.
After covering assay plates with aera seals and the lid, blood plates were kept at room temperature for 30 minutes and continuous shaking with 450 rpm, followed by an overnight incubation of 22 h at 37° C. in the incubator, without shaking.
For the detection of IFNα-2α in human plasma, the biotinylated capture antibody (Antibody set IFNA2, Meso Scale Diagnostics #B21VH-3, including coating and capture antibody) was diluted 1:17.5 in Diluent 100 (Meso Scale Diagnostics #R50AA-4), according to the manufacturer's directions. U-Plex MSD GOLD 96-well Small Spot Strepavidin SECTOR Plates (Meso Scale Diagnostics #L45SA-5) were coated with 25 μl diluted capture antibody. Coated plates were incubated for 60 min at room temperature under continuous shaking at 700 rpm. MSD IFNα-2α plates were washed three times with 150 μl wash buffer (1× HBSS, 0.05% Tween).
After blocking the plates with 100 μl block solution/well (1× HBSS with 0.2% Tween, 2% BSA) for 60 min at room temperature and continuous shaking at 700 rpm, plates were emptied as dry as possible by dumping just before continuing with the human plasma.
Whole Blood assay plates were centrifuged at 1600 rpm for 10 minutes. 25 μl of supernatant was transferred with a pipetting robot from each whole blood plate to the corresponding IFNα-2α plate. Plates were sealed with microplate seals and kept at room temperature again under continuous shaking at 700 rpm for two hours.
Next MSD IFNα-2α plates were washed three times with 150 μl wash buffer (1× HBSS, 0.05% Tween), before adding 25 μl MSD SULFO-TAG IFNα-2α Antibody solution (1:100 diluted in Diluent 3 (Meso Scale Diagnostics #R50AP-2) to each well of the plates.
Afterwards plates were sealed with microplate seals and kept at room temperature again under continuous shaking at 700 rpm for two hours. Finally, MSD IFNα-2α plates were washed three times with 150 μl wash buffer (1× HBSS, 0.05% Tween). 150 μl 2× Read buffer was added to each well and plates were immediately measured with the MSD Sector S600 Reader using the vendor barcode.
as §8
For data evaluation and calculation, % control calculation of each well was based on the mean of high (DNA stimulated control) and mean of low (unstimulated control) controls by using the following formula:
[counts(sample)−counts(low))/(counts(high)−counts(low))]*100
The IC50-values were calculated using the standard 4 parameter logistic regression formula. […]

Row | Compound | pIC50 [1] | pIC50 [2] | Ratio THP(cGAMP) IC50/THP(vir) IC50 [2] | pIC50 [3]
1 | C[C@@H]1CCCCC(=O)N2CCC(CC2)n2c(nc3ccccc32)O[C@H]2C[C@@H](C(=O)O)N(C2)c2nc1nc1c2oc2ccccc21 [Example 1.26] | 8.26 | 4.82 | 2687 | 7.72
2 | O=C(O)[C@@H]1C[C@H]2CN1c1nc(nc3c1oc1ccccc13)CCOCCCC(=O)N1CCC(CC1)n1c(nc3cc(F)ccc31)O2 [Example 1.03] | 6.96 | < 5.00 | >90 | 7.44
3 | C[C@H]1CN2CC[C@@H]1n1c(nc3cccc(Cl)c31)O[C@H]1C[C@@H](C(=O)O)N(C1)c1nc(nc3c1oc1ccccc13)CC(=O)NCCCC2=O (racemic) [Example 2.01, (12S,14S)-4-chloro-37-methyl-29,34-dioxo-11,18-dioxa-2,9,15,26,30,35,40-heptaazaoctacyclo[33.2.2.1^12,15.1^16,27.0^2,10.0^3,8.0^17,25.0^19,24]hentetraconta-3,5,7,9,16(40),17(25),19(24),20,22,26-decaene-14-carboxylic acid] | 7.96 | < 5.00 | >948 | 7.46
4 | C[C@H]1CN2CC[C@@H]1n1c(nc3ccccc31)O[C@H]1C[C@@H](C(=O)O)N(C1)c1nc(nc3c1oc1ccccc13)CCCCCOC2=O [Example 10.02] | 7.19 | < 5.00 | >156 | 7.08
5 | C[C@H]1CN2CC[C@@H]1n1c(nc3cc(Cl)ccc31)O[C@H]1C[C@@H](C(=O)O)N(C1)c1nc(nc3c1oc1ccccc13)C(F)(F)CCCOCC2=O [Example 1.21] | 8.72 | < 5.00 | >5238 | 9.00
6 | C[C@@H]1CN2CC[C@H]1n1c(nc3ccccc31)O[C@H]1C[C@@H](C(=O)O)N(C1)c1nc(nc3c1oc1ccccc13)CCCCCOC2=O [Example 10.01] | 6.74 | 5.09 | 45 | 6.36
7 | C[C@H]1CN2CC[C@@H]1n1c(nc3ccc(Cl)cc31)O[C@H]1C[C@@H](C(=O)O)N(C1)c1nc(nc3c1oc1ccccc13)COCCCCC2=O [Example 1.10] | 7.89 | < 5.00 | >790 | 7.92
8 | O=C(O)[C@@H]1C[C@H]2CN1c1nc(nc3c1oc1ccccc13)COCCCCCC(=O)N1CCC(CC1)n1c(nc3cccc(F)c31)O2 [Example 5.01] | 7.42 | < 5.00 | >260 | 7.48
9 | C[C@H]1CN2CC[C@@H]1n1c(nc3ccccc31)O[C@H]1C[C@@H](C(=O)O)N(C1)c1nc(nc3c1oc1ccccc13)CCOCCOC2=O (mixture of isomers) [Example 12.01] | 6.62 | < 5.00 | >42 | 6.65
10 | C[C@H]1CN2CC[C@@H]1n1c(nc3ccccc31)O[C@H]1C[C@@H](C(=O)O)N(C1)c1nc(nc3c1oc1ccccc13)C(F)(F)CCCCC(F)(F)C2=O [Example 1.17] | 7.89 | 5.18 | 519 | 8.10
11 | C[C@@H]1CN2CC[C@H]1n1c(nc3cc(Cl)ccc31)O[C@H]1C[C@@H](C(=O)O)N(C1)c1nc(nc3c1oc1ccccc13)CCOCCCC2=O [Example 1.01] | 7.41 | < 5.00 | >253 | 7.06
12 | C[C@H]1CN2CC[C@@H]1n1c(nc3ccccc31)O[C@H]1C[C@@H](C(=O)O)N(C1)c1nc(nc3c1oc1cc(F)ccc13)C(F)(F)CCCCCC2=O [Example 1.14] | 8.82 | 4.74 | 11920 | 8.40
13 | C[C@H]1CCCCC(=O)N2CCC(CC2)n2c(nc3ccccc32)O[C@H]2C[C@@H](C(=O)O)N(C2)c2nc1nc1c2oc2ccccc21 [Example 1.25] | 8.10 | < 5.00 | >1251 | 7.39
14 | O=C(O)[C@@H]1C[C@H]2CN1c1nc(nc3c1oc1ccccc13)COCCCC(F)(F)C(=O)N1CCC(CC1)n1c(nc3ccccc31)O2 [Example 8.01] | 7.41 | < 5.00 | 255 | 7.46
15 | C[C@H]1CN2CC[C@@H]1n1c(nc3cc(Cl)ccc31)O[C@H]1C[C@@H](C(=O)O)N(C1)c1nc(nc3c1oc1cc(F)ccc13)CCCCOCC2=O [Example 1.09] | 8.37 | < 5.00 | 4305 | 8.70
16 | C[C@H]1CN2CC[C@@H]1n1c(nc3cc(Cl)ccc31)O[C@H]1C[C@@H](C(=O)O)N(C1)c1nc(nc3c1oc1ccccc13)C(F)(F)CCCCCC2=O [Example 1.12] | 8.66 | 5.44 | 1620 | 8.30
17 | C[C@H]1CN2CC[C@@H]1n1c(nc3ccc(Cl)cc31)O[C@H]1C[C@@H](C(=O)O)N(C1)c1nc(nc3c1oc1ccccc13)CCOCCCC2=O [Example 1.06] | 8.39 | < 5.00 | >2417 | 7.82
18 | O=C(O)[C@@H]1C[C@H]2CN1c1nc(nc3c1oc1ccccc13)CCCOCC(=O)N1CCC(CC1)n1c(nc3ccccc31)O2 [Example 9.01] | 6.40 | – | – | 7.39
